From ChEMBL document CHEMBL3885881, “DrugMatrix”

Species on record: Rattus norvegicus
Test: DrugMatrix - Regimen: Daily Repeat
Assay type: toxicity, organism-based, Sprague-Dawley
Parameters: regimen Daily Repeat, gender Male, age 6-8 weeks
Conditions: in vivo, po, route oral GAVAGE, vehicle .5 % CMC; for ABSOLUTE BASOPHIL / ABSOLUTE EOSINOPHIL / ABSOLUTE LYMPHOCYTE / ABSOLUTE MONOCYTE / ABSOLUTE SEGMENTED NEUTROPHIL / BASOPHIL / EOSINOPHIL / ERYTHROCYTE COUNT / HEMATOCRIT / HEMOGLOBIN / LEUKOCYTE COUNT / LYMPHOCYTE / MEAN CORPUSCULAR HEMOGLOBIN / MEAN CORPUSCULAR HEMOGLOBIN CONCENTRATION / MEAN CORPUSCULAR VOLUME / MONOCYTE / NEUTROPHIL / NUCLEATED RED BLOOD CELLS / PLATELET COUNT: tissue Blood; for ALANINE AMINOTRANSFERASE / ALBUMIN / ALKALINE PHOSPHATASE / ASPARTATE AMINOTRANSFERASE / BLOOD UREA NITROGEN / CARBON DIOXIDE / CHLORIDE / CHOLESTEROL / CREATINE PHOSPHOKINASE / CREATININE / GLUCOSE / LACTATE DEHYDROGENASE / LIPASE / PHOSPHORUS / POTASSIUM / SODIUM / TOTAL BILIRUBIN / TOTAL PROTEIN / URIC ACID: tissue Plasma
[1] = 0 mg/kg, 72 h, dose level Control, time 3 day
[2] = 0 mg/kg, 120 h, dose level Control, time 5 day
[3] = 75 mg/kg, 72 h, dose level High, time 3 day

Cc1ccc(/N=C/N(C)/C=N/c2ccc(C)cc2C)c(C)c1 [AMITRAZ]
ABSOLUTE BASOPHIL [1]: 0 CELLS/uL
ABSOLUTE EOSINOPHIL [1]: 0 CELLS/uL
ABSOLUTE LYMPHOCYTE [1]: 12269.67 CELLS/uL
ABSOLUTE MONOCYTE [1]: 160.33 CELLS/uL
ABSOLUTE SEGMENTED NEUTROPHIL [1]: 970 CELLS/uL
BASOPHIL [1]: 0%
EOSINOPHIL [1]: 0%
ERYTHROCYTE COUNT [1]: 5.76 x10E6/uL
HEMATOCRIT [1]: 36.57%
HEMOGLOBIN [1]: 14.22 G/DL
LEUKOCYTE COUNT [1]: 13.4 x10E3/uL
LYMPHOCYTE [1]: 91.67%
MEAN CORPUSCULAR HEMOGLOBIN [1]: 24.67 pg
MEAN CORPUSCULAR HEMOGLOBIN CONCENTRATION [1]: 38.85 G/DL
MEAN CORPUSCULAR VOLUME [1]: 63.52 fL
MONOCYTE [1]: 1.17%
NEUTROPHIL [1]: 7.17%
NUCLEATED RED BLOOD CELLS [1]: 0.33 /100WBC
PLATELET COUNT [1]: 1250.83 x10E3/uL
ALANINE AMINOTRANSFERASE [1]: 49.17 u/L
ALBUMIN [1]: 4.33 G/DL
ALKALINE PHOSPHATASE [1]: 378.5 u/L
ASPARTATE AMINOTRANSFERASE [1]: 82.17 u/L
BLOOD UREA NITROGEN [1]: 15 mg/dL
CARBON DIOXIDE [1]: 34.33 mmol/L
CHLORIDE [1]: 99.17 MEQ/L
CHOLESTEROL [1]: 71.17 mg/dL
CREATINE PHOSPHOKINASE [1]: 258.67 u/L
CREATININE [1]: 0.18 mg/dL
GLUCOSE [1]: 142.67 mg/dL
LACTATE DEHYDROGENASE [1]: 154.33 u/L
LIPASE [1]: 9 u/L
PHOSPHORUS [1]: 11.67 mg/dL
POTASSIUM [1]: 7.13 MEQ/L
SODIUM [1]: 142.22 MEQ/L
TOTAL BILIRUBIN [1]: 0.18 mg/dL
TOTAL PROTEIN [1]: 5.77 G/DL
URIC ACID [1]: 1.55 mg/dL
ABSOLUTE BASOPHIL [2]: 0 CELLS/uL
ABSOLUTE EOSINOPHIL [2]: 23.33 CELLS/uL
ABSOLUTE LYMPHOCYTE [2]: 14943.67 CELLS/uL
ABSOLUTE MONOCYTE [2]: 32 CELLS/uL
ABSOLUTE SEGMENTED NEUTROPHIL [2]: 1084.33 CELLS/uL
BASOPHIL [2]: 0%
EOSINOPHIL [2]: 0.17%
ERYTHROCYTE COUNT [2]: 5.71 x10E6/uL
HEMATOCRIT [2]: 35.28%
HEMOGLOBIN [2]: 14.27 G/DL
LEUKOCYTE COUNT [2]: 16.08 x10E3/uL
LYMPHOCYTE [2]: 93%
MEAN CORPUSCULAR HEMOGLOBIN [2]: 25.02 pg
MEAN CORPUSCULAR HEMOGLOBIN CONCENTRATION [2]: 40.43 G/DL
MEAN CORPUSCULAR VOLUME [2]: 61.82 fL
MONOCYTE [2]: 0.17%
NEUTROPHIL [2]: 6.67%
NUCLEATED RED BLOOD CELLS [2]: 0.33 /100WBC
PLATELET COUNT [2]: 1274 x10E3/uL
ALANINE AMINOTRANSFERASE [2]: 54.17 u/L
ALBUMIN [2]: 4.22 G/DL
ALKALINE PHOSPHATASE [2]: 373.17 u/L
ASPARTATE AMINOTRANSFERASE [2]: 81.83 u/L
BLOOD UREA NITROGEN [2]: 16.67 mg/dL
CARBON DIOXIDE [2]: 30.33 mmol/L
CHLORIDE [2]: 99 MEQ/L
CHOLESTEROL [2]: 71 mg/dL
CREATINE PHOSPHOKINASE [2]: 273.5 u/L
CREATININE [2]: 0.22 mg/dL
GLUCOSE [2]: 141.83 mg/dL
LACTATE DEHYDROGENASE [2]: 153.67 u/L
LIPASE [2]: 10.33 u/L
PHOSPHORUS [2]: 11.38 mg/dL
POTASSIUM [2]: 7.08 MEQ/L
SODIUM [2]: 142.75 MEQ/L
TOTAL BILIRUBIN [2]: 0.18 mg/dL
TOTAL PROTEIN [2]: 6.1 G/DL
URIC ACID [2]: 1.67 mg/dL
ABSOLUTE BASOPHIL [3]: 0 CELLS/uL
ABSOLUTE EOSINOPHIL [3]: 0 CELLS/uL
ABSOLUTE LYMPHOCYTE [3]: 12442 CELLS/uL
ABSOLUTE MONOCYTE [3]: 223 CELLS/uL
ABSOLUTE SEGMENTED NEUTROPHIL [3]: 868.33 CELLS/uL
BASOPHIL [3]: 0%
EOSINOPHIL [3]: 0%
ERYTHROCYTE COUNT [3]: 6.64 x10E6/uL
HEMATOCRIT [3]: 42%
HEMOGLOBIN [3]: 16.13 G/DL
LEUKOCYTE COUNT [3]: 13.53 x10E3/uL
LYMPHOCYTE [3]: 92.33%
MEAN CORPUSCULAR HEMOGLOBIN [3]: 24.27 pg
MEAN CORPUSCULAR HEMOGLOBIN CONCENTRATION [3]: 38.4 G/DL
MEAN CORPUSCULAR VOLUME [3]: 63.23 fL
MONOCYTE [3]: 1.67%
NEUTROPHIL [3]: 6%
NUCLEATED RED BLOOD CELLS [3]: 0 /100WBC
PLATELET COUNT [3]: 1347.33 x10E3/uL
ALANINE AMINOTRANSFERASE [3]: 35.67 u/L
ALBUMIN [3]: 3.93 G/DL
ALKALINE PHOSPHATASE [3]: 354 u/L
ASPARTATE AMINOTRANSFERASE [3]: 84.33 u/L
BLOOD UREA NITROGEN [3]: 20 mg/dL
CARBON DIOXIDE [3]: 34.67 mmol/L
CHLORIDE [3]: 101.67 MEQ/L
CHOLESTEROL [3]: 49 mg/dL
CREATINE PHOSPHOKINASE [3]: 285.33 u/L
CREATININE [3]: 0.3 mg/dL
GLUCOSE [3]: 211 mg/dL
LACTATE DEHYDROGENASE [3]: 230 u/L
LIPASE [3]: 8.33 u/L
PHOSPHORUS [3]: 11.13 mg/dL
POTASSIUM [3]: 6.26 MEQ/L
SODIUM [3]: 146.5 MEQ/L
TOTAL BILIRUBIN [3]: 0.23 mg/dL
TOTAL PROTEIN [3]: 5.2 G/DL
URIC ACID [3]: 1.83 mg/dL
